From publication PMC12115197, “Neuroprotective Potential of Tetraselmis chuii Compounds: Insights into Blood–Brain Barrier Permeability and Intestinal Transport” (Pharmaceuticals, 2025)
Values joined by “and” are separate entries in the source; they are usually repeats but may differ in a detail not shown here. Identical values can stand only once. “Also recorded” adds a separate entry of the source. Marks after values point to notes of the source that are not given here.

What was measured:
HBMEC cells = assay: Blood-brain barrier transport study (Transwell, UHPLC-q-TOF-MS); assay type: in vitro ADME, human; settings: for Permeability / transport to the lower compartment in HBMEC cells, over the incubation times tested: OP-1 extract 40 µg mL−1, 2-24 h, time not specified (overall or maximum); for Te% ± SEM HBMEC Cells 4 h: OP-1 extract 40 µg mL−1, 4 h; for Te% ± SEM HBMEC Cells 4 h / Te% ± SEM HBMEC Cells 24 h / Te% ± SEM HBMEC Cells 2 h: Te = CLower/CUpper × 100; for Te% ± SEM HBMEC Cells 24 h: OP-1 extract 40 µg mL−1, 24 h; for Te% ± SEM HBMEC Cells 2 h: OP-1 extract 40 µg mL−1, 2 h
Method: The HBMEC cell line was used as a simplified in vitro model of the BBB endothelium. For this, cells were seeded at a density of 1.6 × 10^5 cells/cm^2 into 12-well Transwell® plates (0.4 μm pore, Corning Costar Corp., Corning, NY, USA) coated with rat tail collagen-I (100 μg mL^−1). Medium was changed every second day until a monolayer was formed (10 days), and the transport studies were initiated.
Medium containing 0.4% ethanol was used as the control group, and the lower chamber was filled with 1.5 mL of medium. The cells were incubated under these conditions for 2, 4, and 24 h. After incubation time, cell culture medium from both the upper and lower compartments was collected, dried using a freeze dryer (Martin Christ, Osterode am Harz, Germany), and stored at −80 °C until the chemical characterization was performed to assess the transport efficiency of the bioactive compounds.
(§1) The transport efficiency of bioactive compounds across the cell layer (Te) was calculated using the Equation (1) proposed by Pogačnik et al. (2016):Te = CLower/CUpper × 100%(1)
(§2) This calculation was performed to understand whether the compound crosses the cell layer and how efficiently it is transported. Here, CLower represents the relative concentration (peak area) of the compound in the lower compartment, and CUpper represents the relative concentration (peak area) of the compound in the upper compartment.
(§3) Obtained samples from the transport assays performed in HBMEC and Caco-2 cells were extracted to recover and concentrate the bioactive compounds in the upper and lower compartments and to prevent possible interferences of the cell culture medium in the analyses. Briefly, dried samples were resuspended in 0.5 mL of H2O and mixed with vortex for 10 s. Then, 0.5 mL of AcOEt was added, mixed with vortex for 10 s, and centrifuged at 14,000 rpm for 5 min. After centrifugation, the supernatant (AcOEt) was carefully transferred to a 1.5 mL Eppendorf tube and dried in a SpeedVac (SPD1030, Thermo Fisher Scientific) device at 40 °C and 13 mbar pressure. Finally, the dried extracts were resuspended in 25 μL of pure ethanol for their subsequent analysis.
(§4) The analysis of the obtained samples from HBMEC cells, Caco-2 cells, and PAMPA-BBB experiments was carried out using the same conditions and instrumentation as in our previous study. Briefly, 10 μL of each sample was injected into an Agilent 1290 UHPLC system equipped with a DAD detector and coupled to an Agilent 6540 q-TOF/MS equipped with an orthogonal atmospheric pressure chemical ionization (APCI) source, all from Agilent Technologies (Santa Clara, CA, USA). Carotenoids were separated using a Thermo Fisher Scientific Accucore C30 column (2.6 μm, 4.6 × 50 mm), applying a flow rate of 0.8 mL min^−1 at 30 °C. Methanol/MTBE/water (90:7:3%) and methanol/MTBE (10:90%) were used as mobile phases, and the chromatographic gradient started with 0%B, changing it to 100%B within 12 min. This was kept constant for 1.5 min before returning to the initial conditions.
(§5) The results were processed using the Agilent Mass Hunter Qualitative software (version B.10.0). A peak intensity threshold of 5000 (nearly 4 times the noise signal) in the upper compartments was applied to obtain reliable and accurate results, and a relative quantification was performed. Peaks below this threshold value were excluded from the analysis.

Caco-2 cells = assay: Intestinal transepithelial transport study (Transwell, UHPLC-q-TOF-MS); assay type: in vitro ADME, human; settings: for Permeability / transport to the lower compartment in Caco-2 cells, over the incubation times tested: OP-1 extract 40 µg mL−1, 2-24 h, time not specified (overall or maximum); for Te% ± SEM Caco-2 Cells 2 h: OP-1 extract 40 µg mL−1, 2 h; for Te% ± SEM Caco-2 Cells 2 h / Te% ± SEM Caco-2 Cells 4 h / Te% ± SEM Caco-2 Cells 24 h: Te = CLower/CUpper × 100; for Te% ± SEM Caco-2 Cells 4 h: OP-1 extract 40 µg mL−1, 4 h; for Te% ± SEM Caco-2 Cells 24 h: OP-1 extract 40 µg mL−1, 24 h
Method: as §1, §2
Caco-2 cells were grown according to the protocol described by Rojo-Poveda et al. (2020) to evaluate the intestinal permeability. Briefly, Caco-2 cells were seeded into inserts (0.4 μm pore, Corning Costar Corp., Corning, NY, USA) in 12-well plates. Then, 0.5 mL of complete DMEM culture medium containing approximately 300,000 cells was applied to the apical surface (AP) of each insert, and 1.5 mL of the same culture medium was added to the basolateral side (BL). Cells were allowed to grow for 21 days to differentiate and form a monolayer, changing the culture medium every 2–3 days.
The Caco-2 transport studies were performed using the same procedures as for HBMEC experiments (described in Section 4.5.2 and Section 4.5.3), but using DMEM as cell culture medium and recording TEER measurements.
as §3, §4, §5

[1] = tested on: differentiated SH-SY5Y cells; assay: Neuroprotection against H2O2-induced toxicity in SH-SY5Y cells (MTT); assay type: cell-based, human; settings: H2O2 65 µM, 24 h
Method: All the experiments were performed in triplicate.
All the experiments were repeated three times.

[2] = Neuroprotection against L-glutamate-induced toxicity in SH-SY5Y cells (MTT); settings: human
Method: Then, the viability was determined by the MTT assay as below. At the end of the 24 h incubation period, the medium was removed, and 0.5 mg mL^−1 MTT solution was added to each well. The cells were incubated at 37 °C for 3 h. At the end of the incubation, MTT was carefully removed, and formazan crystals in the wells were dissolved by adding 100 µL of DMSO. The absorbance of the solution was measured by a plate reader at 570 nm wavelength. Cell viability was calculated by comparing the absorbance values of treated cells with the control group (ethanol-treated cells). […] All the experiments were performed in triplicate.
In the control group, DMEM/F12 cell medium supplemented with 1% FBS, 100 U mL^−1 penicillin, 100 μg mL^−1 streptomycin, 250 ng mL^−1 antimycotic, and 0.4% ethanol was used. […] Cell viability was assessed by MTT assay at the end of the experiments. All the experiments were repeated three times.

CC1=C(C#C/C(C)=C/C=C/C(C)=C/C=C/C=C(C)/C=C/C=C(C)/C=C/C2=C(C)C[C@@H](O)CC2(C)C)C(C)(C)C[C@H](O)C1 [Diatoxanthin]
Permeability / transport to the lower compartment in HBMEC cells, over the incubation times tested (HBMEC cells): 8.1% | Te% ± SEM HBMEC Cells 4 h (HBMEC cells): 1.1 ± 0.1 ^b % | Te% ± SEM HBMEC Cells 4 h (HBMEC cells; listed as diatoxanthin): 1.1% | Te% ± SEM HBMEC Cells 24 h (HBMEC cells): 8.1 ± 3.4 ^a % | Te% ± SEM HBMEC Cells 24 h (HBMEC cells; listed as diatoxanthin): 8.1% | Permeability / transport to the lower compartment in Caco-2 cells, over the incubation times tested (Caco-2 cells): 4.4% | Te% ± SEM Caco-2 Cells 2 h (Caco-2 cells): 1.4 ± 0.1 ^c % | Te% ± SEM Caco-2 Cells 2 h (Caco-2 cells; listed as diatoxanthin): 1.4% | Te% ± SEM Caco-2 Cells 4 h (Caco-2 cells): 2.3 ± 0.3 ^b % | Te% ± SEM Caco-2 Cells 24 h (Caco-2 cells): 4.4 ± 0.9 ^a % | Te% ± SEM Caco-2 Cells 24 h (Caco-2 cells; listed as diatoxanthin): 4.4%

echinenone II
Permeability / transport to the lower compartment in HBMEC cells, over the incubation times tested (HBMEC cells): could not be detected in the lower compartment | Permeability / transport to the lower compartment in Caco-2 cells, over the incubation times tested (Caco-2 cells): could not be detected in the lower compartment

CC1=C(/C=C/C(C)=C/C=C/C(C)=C/C=C/C=C(C)/C=C/C=C(C)/C=C/C2=C(C)CCCC2(C)C)C(C)(C)CCC1 [β-carotene]
Permeability / transport to the lower compartment in HBMEC cells, over the incubation times tested (HBMEC cells): could not be detected in the lower compartment | Permeability / transport to the lower compartment in Caco-2 cells, over the incubation times tested (Caco-2 cells): could not be detected in the lower compartment

CC1=CCCC(C)(C)C1/C=C/C(C)=C/C=C/C(C)=C/C=C/C=C(C)/C=C/C=C(C)/C=C/C1=C(C)CCCC1(C)C (stereo not drawn) [α-carotene]
Permeability / transport to the lower compartment in HBMEC cells, over the incubation times tested (HBMEC cells): could not be detected in the lower compartment | Permeability / transport to the lower compartment in Caco-2 cells, over the incubation times tested (Caco-2 cells): could not be detected in the lower compartment

echinenone I
Permeability / transport to the lower compartment in HBMEC cells, over the incubation times tested (HBMEC cells): could not be detected in the lower compartment | Permeability / transport to the lower compartment in Caco-2 cells, over the incubation times tested (Caco-2 cells): could not be detected in the lower compartment

C\C(C=C=C1C(C)(C)C[C@H](O)C[C@@]1(C)O)=C/C=C/C(C)=C/C=C/C=C(C)/C=C/C=C(\C)C(=O)C[C@@]12O[C@]1(C)C[C@@H](O)CC2(C)C [Fucoxanthinol]
Te% ± SEM HBMEC Cells 2 h (HBMEC cells): 4.41% and 4.4 ± 1.1 ^c % | Te% ± SEM HBMEC Cells 2 h (HBMEC cells; listed as fucoxanthinol): 4.4% | Te% ± SEM HBMEC Cells 4 h (HBMEC cells): 5.13% and 5.1 ± 0.1 ^b % | Te% ± SEM HBMEC Cells 24 h (HBMEC cells): 18.94% and 18.9 ± 2.3 ^a % | Te% ± SEM Caco-2 Cells 2 h (Caco-2 cells): 7.01% and 7.0 ± 0.2 ^c % | Te% ± SEM Caco-2 Cells 2 h (Caco-2 cells; listed as fucoxanthinol): 7.0% | Te% ± SEM Caco-2 Cells 4 h (Caco-2 cells): 8.63% and 8.6 ± 2.2 ^b % | Te% ± SEM Caco-2 Cells 24 h (Caco-2 cells): 18.36% and 18.4 ± 7.2 ^a %

CC1=C(/C=C/C(C)=C/C=C/C(C)=C/C=C/C=C(C)/C=C/C=C(C)/C=C/[C@@]23O[C@]2(C)C[C@@H](O)CC3(C)C)C(C)(C)C[C@H](O)C1 [antheraxanthin]
Permeability / transport to the lower compartment in HBMEC cells, over the incubation times tested (HBMEC cells): could not be detected in the lower compartment | Permeability / transport to the lower compartment in Caco-2 cells, over the incubation times tested (Caco-2 cells): could not be detected in the lower compartment

CC1=C(C#C/C(C)=C/C=C/C(C)=C/C=C/C=C(C)/C=C/C=C(C)/C=C/[C@@]23O[C@]2(C)C[C@@H](O)CC3(C)C)C(C)(C)C[C@H](O)C1 [diadinoxanthin]
Permeability / transport to the lower compartment in HBMEC cells, over the incubation times tested (HBMEC cells): could not be detected in the lower compartment | Permeability / transport to the lower compartment in Caco-2 cells, over the incubation times tested (Caco-2 cells): could not be detected in the lower compartment

CC(/C=C/C=C(C)/C=C/[C@@]12O[C@]1(C)C[C@@H](O)CC2(C)C)=C\C=C\C=C(C)\C=C\C=C(C)\C=C\[C@@]12O[C@]1(C)C[C@@H](O)CC2(C)C [Violaxanthin]
Te% ± SEM HBMEC Cells 24 h (HBMEC cells): 13.9 ± 6.0% | Permeability / transport to the lower compartment in Caco-2 cells, over the incubation times tested (Caco-2 cells): could not be detected; also recorded: could not pass through the intestinal epithelium

CC1=C(C#C/C(C)=C/C=C/C(C)=C/C=C/C=C(C)/C=C/C=C(C)/C=C/C2=C(C)CCCC2(C)C)C(C)(C)C[C@H](O)C1 [Crocoxanthin]
Permeability / transport to the lower compartment in HBMEC cells, over the incubation times tested (HBMEC cells): ≈ 3% and 3% | Te% ± SEM HBMEC Cells 2 h (HBMEC cells): 3.4 ± 3.2 ^a % | Te% ± SEM HBMEC Cells 4 h (HBMEC cells): 0.9 ± 0.3 ^b % | Te% ± SEM HBMEC Cells 24 h (HBMEC cells): 2.7 ± 0.6 ^a % | Permeability / transport to the lower compartment in Caco-2 cells, over the incubation times tested (Caco-2 cells): ≈ 12% and 12.1% | Te% ± SEM Caco-2 Cells 2 h (Caco-2 cells): 12.0 ± 9.5 ^a % | Te% ± SEM Caco-2 Cells 4 h (Caco-2 cells): 11.8 ± 5.6 ^a % | Te% ± SEM Caco-2 Cells 24 h (Caco-2 cells): 12.1 ± 1.5 ^a %

hydrogen peroxide [H2O2]
Cell viability compared to control group, neurotoxic agent alone [1]: 48%

CC(=C/C=C/C(C)=C/C=C/C=C(C)/C=C/C=C(\C)C=C=C1C(C)(C)C[C@H](O)C[C@@]1(C)O)/C=C/[C@@]12O[C@]1(C)C[C@@H](O)CC2(C)C [Neoxanthin]
Permeability / transport to the lower compartment in HBMEC cells, over the incubation times tested (HBMEC cells): 13.2% | Te% ± SEM HBMEC Cells 4 h (HBMEC cells): 1.4 ± 0.2 ^b % | Te% ± SEM HBMEC Cells 4 h (HBMEC cells; listed as neoxanthin): 1.4% | Te% ± SEM HBMEC Cells 24 h (HBMEC cells): 13.2 ± 4.3 ^a % | Te% ± SEM HBMEC Cells 24 h (HBMEC cells; listed as neoxanthin): 13.2% | Permeability / transport to the lower compartment in Caco-2 cells, over the incubation times tested (Caco-2 cells): ≈ 0.6% and 0.6% | Te% ± SEM Caco-2 Cells 2 h (Caco-2 cells): 0.5 ± 0.3 ^b % | Te% ± SEM Caco-2 Cells 4 h (Caco-2 cells): 0.4 ± 0.1 ^b % | Te% ± SEM Caco-2 Cells 24 h (Caco-2 cells): 0.6 ± 0.4 ^a %

C=C1C[C@@H](O)CC(C)(C)[C@]1(O)CC(=O)/C(C)=C/C=C/C(C)=C/C=C/C=C(C)/C=C/C=C(C)/C=C/[C@H]1C(C)=C[C@H](O)CC1(C)C [Prasinoxanthin]
Te% ± SEM HBMEC Cells 24 h (HBMEC cells): 8.9 ± 2.3% | Permeability / transport to the lower compartment in Caco-2 cells, over the incubation times tested (Caco-2 cells): could not be detected; also recorded: could not pass through the intestinal epithelium

zeaxanthin/lutein
Permeability / transport to the lower compartment in HBMEC cells, over the incubation times tested (HBMEC cells): could not be detected in the lower compartment | Permeability / transport to the lower compartment in Caco-2 cells, over the incubation times tested (Caco-2 cells): could not be detected in the lower compartment

N[C@@H](CCC(=O)O)C(=O)O [L-glutamate]
viability at 24 h, 23 mM [2]: 47%
